Earlier results in patent US10716757B2, “Liposomal formulation for the oral hepatic delivery of drugs” (Universität Heidelberg, priority 2015, dated 2020).

Assays:
[1] = film method followed by extrusion, reference [17]
[2] = Myrcludex B per se, no liposomes

Row | Compound | encapsulation efficiency [1] | oral bioavailability [2]
1 | C[C@@H](O)[C@@H]1NC(=O)[C@H](CCCCN)NC(=O)[C@@H](Cc2c[nH]c3ccccc23)NC(=O)[C@H](Cc2ccccc2)NC(=O)[C@@H](NC(=O)[C@H](N)Cc2ccccc2)CSSC[C@@H](C(=O)N[C@H](CO)[C@@H](C)O)NC1=O [octreotide] | 13.0 % (m/m) | –
2 | Myr-HBVpreS/2-48 [Myrcludex B] | – | < 1%
